Results on 12 molecules are retold here after PubChem BioAssay (NCI).

As a reminder, the TGI is the concentration at which net growth stops. Lower therefore signals more potent growth arrest.

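Grown in 96-well plates, cells were treated for 48 hours with each compound at five concentrations. Insufficient inhibition: endpoint recorded as highest concentration tested. TGI denotes the concentration required for complete inhibition of growth.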 A value given as a limit tells only on which side of the number the result lay.

Test systems include COLO 205 colon; HOP-62 NSCLC; HS 578T breast; HT29 colon; K-562 leukemia; KM12 colon; MDA-MB-435; MOLT-4 leukemia; NCI-H226 lung; NCI-H522 lung; NCI/ADR-RES ovarian; OVCAR-4 ovarian; OVCAR-5 ovarian; PC-3 prostate; RPMI-8226 leukemia; RXF 393 renal; SF-268 CNS; SR leukemia; MDA-MB-231 breast; U251 CNS.
Assay in all cases: DTP human tumour cell line panel, 48 h

For the molecule `C[C@]12CC[C@H](O)CC1=CC[C@@H]1[C@@H]2CC[C@]2(C)C(=N/O)/C(=C/c3ccc([N+](=O)[O-])cc3)C[C@@H]12`, the concentration for total growth inhibition (TGI) with COLO 205 colon amounted to 15.7 µM; with HOP-62 NSCLC, 21.1 µM; in the assay with HS 578T breast, 63.5 µM; with HT29 colon, 23.5 µM; in the assay on K-562 leukemia it was 59.9 µM; in the assay on KM12 colon, 60.1 µM. In addition, the TGI was 40.8 µM in the assay on MDA-MB-435; 20.5 µM in the assay with MOLT-4 leukemia; 6.59 µM in the assay with NCI-H226 lung; 16.4 µM in the assay with NCI-H522 lung; 25.9 µM with NCI/ADR-RES ovarian; more than 100 µM in the assay with OVCAR-4 ovarian. Moreover, the TGI came out at 21.5 µM in the assay with OVCAR-5 ovarian; 14.3 µM in the assay with PC-3 prostate; 50.6 µM with RPMI-8226 leukemia; 15.6 µM in the assay with RXF 393 renal; 24.8 µM in the assay on SF-268 CNS; 22.5 µM with SR leukemia.

`CCOP(=O)(OCC)[C@H]1OC(C)(C)O[C@@H]1CO`: the concentration for total growth inhibition (TGI) in the assay on COLO 205 colon, in the assay on HOP-62 NSCLC, in the assay on HS 578T breast, in the assay with HT29 colon, in the assay on KM12 colon and in the assay on MDA-MB-231 breast was more than 100 µM throughout. The total growth inhibition concentration (TGI) in the assay with MDA-MB-435, in the assay with MOLT-4 leukemia, in the assay with NCI-H522 lung, in the assay with NCI/ADR-RES ovarian, in the assay with OVCAR-4 ovarian and with OVCAR-5 ovarian was more than 100 µM each time. Moreover, the TGI with PC-3 prostate, with RPMI-8226 leukemia, with SF-268 CNS and in the assay with U251 CNS was more than 100 µM throughout.

For `N#Cc1nc(C(CO)N(Cc2ccccc2)C(=O)O)oc1N` (stereo unspecified), the concentration for total growth inhibition (TGI) with COLO 205 colon, with HOP-62 NSCLC, in the assay with HT29 colon, with K-562 leukemia, in the assay with KM12 colon and with MDA-MB-231 breast was more than 100 µM throughout. Besides, the TGI in the assay on MDA-MB-435, with MOLT-4 leukemia, in the assay on NCI-H226 lung, in the assay with NCI-H522 lung, in the assay on NCI/ADR-RES ovarian and in the assay on OVCAR-4 ovarian was more than 100 µM throughout. The concentration for total growth inhibition (TGI) in the assay on OVCAR-5 ovarian, with PC-3 prostate, with RPMI-8226 leukemia, with RXF 393 renal, in the assay with SF-268 CNS and with SR leukemia was more than 100 µM each time. This molecule also gave a TGI with U251 CNS of more than 100 µM.

As to `COC(=O)C1C2CC3C1C3C2C(=O)OC` (stereo unspecified), the total growth inhibition concentration (TGI) in the assay with COLO 205 colon, in the assay with HOP-62 NSCLC, in the assay with HS 578T breast, in the assay with HT29 colon, in the assay on K-562 leukemia and in the assay with KM12 colon was more than 100 µM each time. For the same molecule, the TGI with MDA-MB-231 breast, in the assay with MDA-MB-435, in the assay with MOLT-4 leukemia, in the assay with NCI-H226 lung, in the assay on NCI-H522 lung and with NCI/ADR-RES ovarian was more than 100 µM throughout. The TGI with OVCAR-4 ovarian, in the assay with OVCAR-5 ovarian, in the assay with PC-3 prostate, in the assay on RXF 393 renal, in the assay with SF-268 CNS and in the assay on U251 CNS was more than 100 µM each time.

`COC(=O)CSC(=S)Nc1nnc(NC(=S)SCOC(C)=O)n1C(=S)SCC(=O)OC`: the total growth inhibition concentration (TGI) was more than 100 µM in the assay on COLO 205 colon; 37.5 µM with HOP-62 NSCLC; more than 100 µM in the assay with HS 578T breast; more than 100 µM in the assay with HT29 colon; more than 100 µM with K-562 leukemia; more than 100 µM with KM12 colon. Moreover, the TGI with MDA-MB-435, with MOLT-4 leukemia, with NCI/ADR-RES ovarian, with OVCAR-4 ovarian, with OVCAR-5 ovarian and with PC-3 prostate was more than 100 µM throughout. Moreover, the concentration for total growth inhibition (TGI) in the assay on RPMI-8226 leukemia, with RXF 393 renal, with SF-268 CNS, with SR leukemia and in the assay with U251 CNS was more than 100 µM in each case.

With `Cc1ccc2c(=O)cc(-c3ccsc3)[nH]c2n1`, the TGI in the assay on COLO 205 colon is 12.8 µM; in the assay with HOP-62 NSCLC it was more than 100 µM; in the assay on HS 578T breast, 26.2 µM; in the assay on HT29 colon, more than 100 µM; in the assay on K-562 leukemia, more than 100 µM; with KM12 colon it was more than 100 µM. Besides, the concentration for total growth inhibition (TGI) in the assay on MDA-MB-231 breast was more than 87.6 µM; in the assay on MOLT-4 leukemia, more than 30.7 µM; with NCI-H226 lung, 56.8 µM; in the assay with NCI-H522 lung, more than 27.3 µM; with NCI/ADR-RES ovarian, more than 20.5 µM; with OVCAR-4 ovarian, more than 100 µM. The TGI is more than 100 µM in the assay on OVCAR-5 ovarian; more than 61.9 µM in the assay with PC-3 prostate; more than 31 µM in the assay with RXF 393 renal; more than 100 µM in the assay on SF-268 CNS; more than 55.2 µM with U251 CNS.

For the molecule `CC(C)SC(NC(=O)C1C(C)(C)CCC1(C)C)C(=O)O` (stereo unspecified), the total growth inhibition concentration (TGI) in the assay with COLO 205 colon, with HOP-62 NSCLC, in the assay on HS 578T breast, with K-562 leukemia, with MDA-MB-231 breast and with MDA-MB-435 was more than 100 µM throughout. Further, the concentration for total growth inhibition (TGI) with NCI-H226 lung, with NCI/ADR-RES ovarian, in the assay on OVCAR-5 ovarian, in the assay with PC-3 prostate, in the assay on RPMI-8226 leukemia and in the assay with SF-268 CNS was more than 100 µM in each case. This molecule also gave a TGI in the assay on U251 CNS of more than 100 µM.

In the case of `Cc1ccc(/C=C2\Cc3cccc(C)c3C2=O)c(C(=O)O)c1`, the TGI with HOP-62 NSCLC, with HS 578T breast, in the assay with HT29 colon, with K-562 leukemia, with KM12 colon and in the assay with MDA-MB-231 breast was more than 100 µM in each case. Besides, the TGI was more than 100 µM with MOLT-4 leukemia; more than 100 µM with NCI-H226 lung; 60.8 µM with NCI-H522 lung; 52.9 µM with OVCAR-4 ovarian; more than 100 µM with OVCAR-5 ovarian; more than 100 µM with PC-3 prostate. The TGI in the assay on RPMI-8226 leukemia, with RXF 393 renal, in the assay with SF-268 CNS, with SR leukemia and in the assay with U251 CNS was more than 100 µM each time.

Regarding `COc1cc(N(Cc2ccc3nc(OC)c(OC)nc3c2)Cc2ccc3nc(OC)c(OC)nc3c2)cc(OC)c1OC`, the concentration for total growth inhibition (TGI) is more than 50 µM with COLO 205 colon; more than 50 µM in the assay on HOP-62 NSCLC; 27.2 µM in the assay with HS 578T breast; more than 50 µM in the assay with HT29 colon; more than 50 µM in the assay with KM12 colon; more than 50 µM in the assay on MDA-MB-435. For the same molecule, the concentration for total growth inhibition (TGI) in the assay with MOLT-4 leukemia, in the assay on NCI-H226 lung, in the assay with NCI-H522 lung, in the assay on NCI/ADR-RES ovarian, with OVCAR-4 ovarian and in the assay with OVCAR-5 ovarian was more than 50 µM throughout. The total growth inhibition concentration (TGI) is more than 50 µM in the assay on PC-3 prostate; more than 50 µM in the assay on RPMI-8226 leukemia; 41.6 µM in the assay with RXF 393 renal; more than 50 µM in the assay with SF-268 CNS; more than 50 µM in the assay with SR leukemia; more than 50 µM in the assay with U251 CNS.

Consider `Cc1ccc(C)c2c1CC(Cc1ccccc1C(=O)O)C2=O` (stereo unspecified), for which the total growth inhibition concentration (TGI) in the assay with COLO 205 colon, in the assay on HOP-62 NSCLC, in the assay on HS 578T breast, with HT29 colon, in the assay with K-562 leukemia and in the assay on KM12 colon was more than 100 µM each time. For the same molecule, the TGI in the assay with MDA-MB-231 breast, in the assay on MDA-MB-435, in the assay with MOLT-4 leukemia, in the assay on NCI-H226 lung, in the assay with NCI-H522 lung and in the assay with NCI/ADR-RES ovarian was more than 100 µM throughout. Further, the TGI in the assay on OVCAR-4 ovarian, in the assay with OVCAR-5 ovarian, with PC-3 prostate, with RXF 393 renal, in the assay on SF-268 CNS and with U251 CNS was more than 100 µM in each case.

Turning to `CCOC(=O)C1=CC(C)(C(=O)OCC)Nc2c(nc(OC)[nH]c2=O)N1` (stereo unspecified), the TGI in the assay with COLO 205 colon, with HOP-62 NSCLC, with HS 578T breast, with HT29 colon, with K-562 leukemia and in the assay on KM12 colon was more than 10 µM throughout. The total growth inhibition concentration (TGI) with MDA-MB-231 breast, with MOLT-4 leukemia, with NCI-H226 lung, in the assay on NCI-H522 lung, with NCI/ADR-RES ovarian and in the assay with OVCAR-4 ovarian was more than 10 µM in each case. Also, the TGI in the assay on OVCAR-5 ovarian, with PC-3 prostate, with RPMI-8226 leukemia, in the assay on RXF 393 renal, in the assay on SF-268 CNS and in the assay with U251 CNS was more than 10 µM each time.

In the case of `CNC(=O)CN(C)C(=O)CCC(=O)N(C)C`, the concentration for total growth inhibition (TGI) in the assay with COLO 205 colon, with HOP-62 NSCLC, with HS 578T breast, in the assay on HT29 colon, in the assay on K-562 leukemia and in the assay on KM12 colon was more than 100 µM in each case. The TGI in the assay with MDA-MB-231 breast, in the assay with MDA-MB-435, with MOLT-4 leukemia, with NCI-H226 lung, in the assay with NCI-H522 lung and in the assay with NCI/ADR-RES ovarian was more than 100 µM in each case. The concentration for total growth inhibition (TGI) with OVCAR-5 ovarian, in the assay with PC-3 prostate, in the assay with RPMI-8226 leukemia, in the assay with SF-268 CNS and in the assay with U251 CNS was more than 100 µM each time.
